ChEMBL document CHEMBL4811240, “Discovery of N-substituted sulfamoylbenzamide derivatives as novel inhibitors of STAT3 signaling pathway based on Niclosamide” (Eur J Med Chem, 2021)
The source made the active and inactive calls. No cut-off for these calls is given here.

Assays:
[1] = molecular target: Serine/threonine-protein kinase PLK1 (Homo sapiens) (UniProt P53350); experiment: Inhibition of full length PLK1 (1 to 603 residues) (unknown origin) expressed in Sf21 at 10 uM preincubated for 10 mins followed by peptide substrate addition relative to control
Sequence of Serine/threonine-protein kinase PLK1 (Homo sapiens) (P53350 whole entry, the tested form may be a part): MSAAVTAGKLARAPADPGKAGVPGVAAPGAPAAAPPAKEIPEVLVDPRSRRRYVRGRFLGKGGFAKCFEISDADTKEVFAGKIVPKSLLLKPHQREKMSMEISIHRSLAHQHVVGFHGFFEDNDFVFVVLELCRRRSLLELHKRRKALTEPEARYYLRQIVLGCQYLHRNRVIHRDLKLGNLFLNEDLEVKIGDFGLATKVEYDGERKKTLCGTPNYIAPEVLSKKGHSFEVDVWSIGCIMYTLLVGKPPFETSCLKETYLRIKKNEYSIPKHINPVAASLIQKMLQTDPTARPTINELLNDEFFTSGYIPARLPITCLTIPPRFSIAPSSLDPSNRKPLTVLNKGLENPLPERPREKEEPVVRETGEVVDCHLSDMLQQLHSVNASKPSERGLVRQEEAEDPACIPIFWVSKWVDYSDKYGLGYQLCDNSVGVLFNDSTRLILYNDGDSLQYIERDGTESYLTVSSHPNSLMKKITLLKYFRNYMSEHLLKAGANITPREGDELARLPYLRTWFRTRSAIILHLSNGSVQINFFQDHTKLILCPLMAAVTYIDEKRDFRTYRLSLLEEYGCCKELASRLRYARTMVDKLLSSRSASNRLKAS

HCT-116 [2] = experiment: Antiproliferative activity against human HCT-116 cells assessed as inhibition of cell viability after 48 hrs by MTT assay; assay type: functional, cell-based; settings: HCT-116, 48 h
[3] = molecular target: Signal transducer and activator of transcription 1-alpha/beta (Homo sapiens) (UniProt P42224); experiment: Inhibition of IL-6 induced STAT1 phosphorylation in human MDA-MB-231 cells at 1 to 10 uM preincubated for 2 hrs followed by IL-6 stimulation and measured after 45 mins by Western blotting analysis; assay type: cell-based; settings: dose 1-10 µM, time 165.0 min
[4] = molecular target: Tyrosine-protein kinase JAK2 (Homo sapiens) (UniProt O60674); experiment: Inhibition of JAK2 (826 to 1132 residues) (unknown origin) expressed in Sf21 cells at 10 uM preincubated for 10 mins followed by peptide substrate addition relative to control
L3.6pl = experiment: Antiproliferative activity against human L3.6 cells assessed as inhibition of cell viability at 10 uM after 48 hrs by MTT assay relative to control; assay type: functional
[5] = molecular target: Mast/stem cell growth factor receptor Kit (Homo sapiens) (UniProt P10721); experiment: Inhibition of c-KIT (544 to 976 residues) (unknown origin) expressed in Sf21 cells at 10 uM preincubated for 10 mins followed by peptide substrate addition relative to control
[6] = molecular target: Vascular endothelial growth factor receptor 1 (Homo sapiens) (UniProt P17948); experiment: Inhibition of recombinant human GST-tagged FLT1 (781 to 1338 residues) expressed in baculovirus expression system at 10 uM preincubated for 10 mins followed by peptide substrate addition relative to control
SW480 = experiment: Antiproliferative activity against human SW480 cells assessed as inhibition of cell viability at 10 uM after 48 hrs by MTT assay relative to control; assay type: functional
[7] = molecular target: Dual specificity mitogen-activated protein kinase kinase 1 (Homo sapiens) (UniProt Q02750); experiment: Inhibition of N-terminal GST-tagged full length MEK1 (1 to 393 residues) (unknown origin) expressed in Sf21 cells at 10 uM preincubated for 10 mins followed by peptide substrate addition relative to control
[8] = molecular target: Insulin-like growth factor 1 receptor (Homo sapiens) (UniProt P08069); experiment: Inhibition of IGF1R (959 to 1367 residues) (unknown origin) expressed in Sf21 cells at 10 uM preincubated for 10 mins followed by peptide substrate addition relative to control
[9] = molecular target: Hepatocyte growth factor receptor (Homo sapiens) (UniProt P08581); experiment: Inhibition of MET (956 to 1390 residues) (unknown origin) expressed in Sf21 cells at 10 uM preincubated for 10 mins followed by peptide substrate addition relative to control
Sequence of Hepatocyte growth factor receptor (Homo sapiens) (P08581 whole entry, the tested form may be a part): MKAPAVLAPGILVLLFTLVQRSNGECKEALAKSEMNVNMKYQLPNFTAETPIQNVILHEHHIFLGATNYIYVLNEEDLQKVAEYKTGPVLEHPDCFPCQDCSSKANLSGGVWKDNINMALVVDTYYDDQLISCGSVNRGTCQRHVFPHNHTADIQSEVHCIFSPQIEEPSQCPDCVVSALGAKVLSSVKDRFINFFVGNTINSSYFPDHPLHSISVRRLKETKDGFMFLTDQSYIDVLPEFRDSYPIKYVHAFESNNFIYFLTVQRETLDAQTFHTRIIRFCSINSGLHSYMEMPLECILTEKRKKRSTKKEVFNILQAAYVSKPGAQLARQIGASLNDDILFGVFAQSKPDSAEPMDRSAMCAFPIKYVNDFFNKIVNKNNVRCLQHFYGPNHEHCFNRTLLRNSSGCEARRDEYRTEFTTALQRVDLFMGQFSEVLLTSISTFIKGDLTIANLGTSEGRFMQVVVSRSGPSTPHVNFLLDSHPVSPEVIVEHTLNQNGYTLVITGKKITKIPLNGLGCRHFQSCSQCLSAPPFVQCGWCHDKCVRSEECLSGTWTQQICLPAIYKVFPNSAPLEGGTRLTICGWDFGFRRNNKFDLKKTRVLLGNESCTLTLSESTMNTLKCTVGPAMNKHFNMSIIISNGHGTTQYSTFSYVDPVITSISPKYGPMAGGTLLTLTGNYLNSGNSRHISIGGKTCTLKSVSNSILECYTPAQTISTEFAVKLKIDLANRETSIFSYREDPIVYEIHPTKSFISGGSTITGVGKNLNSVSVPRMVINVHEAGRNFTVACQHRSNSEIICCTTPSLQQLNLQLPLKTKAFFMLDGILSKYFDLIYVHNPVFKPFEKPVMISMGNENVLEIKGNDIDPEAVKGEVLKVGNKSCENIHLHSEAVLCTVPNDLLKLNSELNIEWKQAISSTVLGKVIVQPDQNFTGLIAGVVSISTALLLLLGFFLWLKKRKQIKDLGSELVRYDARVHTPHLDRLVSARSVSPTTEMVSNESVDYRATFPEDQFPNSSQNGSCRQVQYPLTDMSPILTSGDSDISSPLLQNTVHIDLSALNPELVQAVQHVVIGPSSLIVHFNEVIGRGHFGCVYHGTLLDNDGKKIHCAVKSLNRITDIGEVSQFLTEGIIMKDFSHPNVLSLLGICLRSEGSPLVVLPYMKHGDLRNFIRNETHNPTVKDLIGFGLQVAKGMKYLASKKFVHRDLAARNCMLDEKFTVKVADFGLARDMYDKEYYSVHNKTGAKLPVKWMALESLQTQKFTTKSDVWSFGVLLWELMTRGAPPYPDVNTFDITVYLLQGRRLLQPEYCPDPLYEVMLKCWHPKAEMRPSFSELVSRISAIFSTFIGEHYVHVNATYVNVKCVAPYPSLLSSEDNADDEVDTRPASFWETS

[10] = molecular target: Cyclin-dependent kinase 1/cyclin B1 (Homo sapiens) (UniProt P06493+P14635); experiment: Inhibition of N-terminal GST-tagged full length CDK1/cyclin B1 (unknown origin) expressed in Sf21 cells at 10 uM preincubated for 10 mins followed by peptide substrate addition relative to control
[11] = Toxicity in BALB/c nude mouse xenografted with human MDA-MB-231 cells assessed as effect on body weight at 30 mg/kg, ig administered every two days; assay type: organism-based; settings: in vivo, po
[12] = molecular target: Fibroblast growth factor receptor 1 (Homo sapiens) (UniProt P11362); experiment: Inhibition of FGFR1 (398 to 822 residues) (unknown origin) expressed in Sf21 cells at 10 uM preincubated for 10 mins followed by peptide substrate addition relative to control
MDA-MB-231 [13] = experiment: Induction of apoptosis in human MDA-MB-231 cells assessed as increase in cleaved caspase 9 expression at 1 to 10 uM incubated for 24 hrs by Western blot analysis; assay type: functional, cell-based; settings: dose 1-10 µM
[14] = molecular target: Proto-oncogene tyrosine-protein kinase Src (Homo sapiens) (UniProt P12931); experiment: Inhibition of full length SRC (1 to 536 residues) (unknown origin) expressed in Sf21 cells at 10 uM preincubated for 10 mins followed by peptide substrate addition relative to control
Sequence of Proto-oncogene tyrosine-protein kinase Src (Homo sapiens) (P12931 2-536 limits assumed): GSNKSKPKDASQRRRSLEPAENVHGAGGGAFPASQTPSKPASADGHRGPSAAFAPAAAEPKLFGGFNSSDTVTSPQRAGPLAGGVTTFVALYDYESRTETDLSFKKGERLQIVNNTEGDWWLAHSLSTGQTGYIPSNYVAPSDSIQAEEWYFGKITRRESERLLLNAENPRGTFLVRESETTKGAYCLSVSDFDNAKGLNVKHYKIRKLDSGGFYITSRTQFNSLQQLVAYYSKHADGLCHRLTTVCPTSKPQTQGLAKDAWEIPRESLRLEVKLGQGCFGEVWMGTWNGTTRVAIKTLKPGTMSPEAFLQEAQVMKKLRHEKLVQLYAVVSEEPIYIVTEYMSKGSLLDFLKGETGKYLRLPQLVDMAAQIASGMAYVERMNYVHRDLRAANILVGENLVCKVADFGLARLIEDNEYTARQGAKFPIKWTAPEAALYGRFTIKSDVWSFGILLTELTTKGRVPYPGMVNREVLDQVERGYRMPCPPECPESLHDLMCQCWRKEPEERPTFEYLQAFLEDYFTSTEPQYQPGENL

[15] = molecular target: Inhibitor of nuclear factor kappa-B kinase subunit beta (Homo sapiens) (UniProt O14920); experiment: Inhibition of IKKbeta (1 to 662 residues) (unknown origin) expressed in Sf21 cells at 10 uM preincubated for 10 mins followed by peptide substrate addition relative to control
[16] = molecular target: RAC-alpha serine/threonine-protein kinase (Homo sapiens) (UniProt P31749); experiment: Inhibition of human N-terminal His-tagged full length AKT1 (1 to 480 residues) expressed in Sf9 cells at 10 uM preincubated for 10 mins followed by peptide substrate addition relative to control
[17] = molecular target: Cyclin-dependent kinase 7 (Homo sapiens) (UniProt P50613); experiment: Inhibition of CDK7 (unknown origin) at 10 uM preincubated for 10 mins followed by peptide substrate addition relative to control
Sequence of Cyclin-dependent kinase 7 (Homo sapiens) (P50613 whole entry, the tested form may be a part): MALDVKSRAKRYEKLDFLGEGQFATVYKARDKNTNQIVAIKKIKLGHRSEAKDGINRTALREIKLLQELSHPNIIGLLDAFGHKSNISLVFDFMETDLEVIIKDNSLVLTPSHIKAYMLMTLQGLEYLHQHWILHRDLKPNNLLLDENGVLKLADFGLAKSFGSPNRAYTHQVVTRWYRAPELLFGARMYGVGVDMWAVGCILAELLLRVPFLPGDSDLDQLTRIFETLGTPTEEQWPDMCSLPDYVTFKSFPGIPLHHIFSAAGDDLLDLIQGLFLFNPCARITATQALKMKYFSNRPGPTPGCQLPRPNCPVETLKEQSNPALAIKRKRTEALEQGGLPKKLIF

[18] = molecular target: Fibroblast growth factor receptor 4 (Homo sapiens) (UniProt P22455); experiment: Inhibition of FGFR4 (460 to 802 residues) (unknown origin) expressed in Sf21 cells at 10 uM preincubated for 10 mins followed by peptide substrate addition relative to control
Sequence of Fibroblast growth factor receptor 4 (Homo sapiens) (P22455 22-802 limits assumed): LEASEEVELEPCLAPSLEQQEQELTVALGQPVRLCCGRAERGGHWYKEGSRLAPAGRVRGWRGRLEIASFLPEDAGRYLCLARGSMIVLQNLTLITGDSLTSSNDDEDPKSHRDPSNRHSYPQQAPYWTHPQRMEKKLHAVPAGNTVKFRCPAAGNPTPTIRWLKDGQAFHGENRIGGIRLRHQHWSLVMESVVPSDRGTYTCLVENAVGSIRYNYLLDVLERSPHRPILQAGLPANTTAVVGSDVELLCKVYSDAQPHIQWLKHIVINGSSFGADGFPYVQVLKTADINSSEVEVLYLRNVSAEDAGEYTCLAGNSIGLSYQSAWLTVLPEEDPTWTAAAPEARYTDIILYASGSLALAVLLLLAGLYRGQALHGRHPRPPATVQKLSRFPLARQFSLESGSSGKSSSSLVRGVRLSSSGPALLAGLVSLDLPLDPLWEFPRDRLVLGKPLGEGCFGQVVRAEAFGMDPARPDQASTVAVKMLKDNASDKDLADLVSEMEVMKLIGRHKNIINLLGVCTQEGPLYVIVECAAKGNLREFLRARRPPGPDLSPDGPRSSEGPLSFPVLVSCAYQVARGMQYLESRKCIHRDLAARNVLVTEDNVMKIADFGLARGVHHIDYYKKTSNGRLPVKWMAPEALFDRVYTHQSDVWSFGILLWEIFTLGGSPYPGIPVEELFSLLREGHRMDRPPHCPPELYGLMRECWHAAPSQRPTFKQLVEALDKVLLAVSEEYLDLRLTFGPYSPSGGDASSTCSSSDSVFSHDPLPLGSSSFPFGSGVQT

[19] = molecular target: Serine/threonine-protein kinase PAK 1 (Homo sapiens) (UniProt Q13153); experiment: Inhibition of full length N-terminal GST-tagged PAK1 (1 to 545 residues) (unknown origin) expressed in Sf21 at 10 uM preincubated for 10 mins followed by peptide substrate addition relative to control
Sequence of Serine/threonine-protein kinase PAK 1 (Homo sapiens) (Q13153 whole entry, looked up, the tested form may be a part): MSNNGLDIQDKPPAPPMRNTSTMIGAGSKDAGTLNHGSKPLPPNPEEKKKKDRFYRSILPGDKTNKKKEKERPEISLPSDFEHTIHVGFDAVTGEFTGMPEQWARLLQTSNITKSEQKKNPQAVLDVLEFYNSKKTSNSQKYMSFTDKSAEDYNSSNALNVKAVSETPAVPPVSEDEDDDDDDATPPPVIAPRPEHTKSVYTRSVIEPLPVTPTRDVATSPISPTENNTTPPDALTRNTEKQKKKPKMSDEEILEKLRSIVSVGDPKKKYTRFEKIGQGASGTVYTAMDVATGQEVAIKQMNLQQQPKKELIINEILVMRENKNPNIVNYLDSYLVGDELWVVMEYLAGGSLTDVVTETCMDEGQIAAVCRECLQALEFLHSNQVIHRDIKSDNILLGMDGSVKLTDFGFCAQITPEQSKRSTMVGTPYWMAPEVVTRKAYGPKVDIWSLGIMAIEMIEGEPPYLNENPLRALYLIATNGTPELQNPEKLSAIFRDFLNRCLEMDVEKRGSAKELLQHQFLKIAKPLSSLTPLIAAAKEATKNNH

[20] = molecular target: Mitogen-activated protein kinase 8 (Homo sapiens) (UniProt P45983); experiment: Inhibition of N-terminal GST-tagged JNK1 (2 to 364 residues) (unknown origin) expressed in Escherichia coli at 10 uM preincubated for 10 mins followed by peptide substrate addition relative to control
HCT-116 [21] = experiment: Antiproliferative activity against human HCT116 cells assessed as inhibition of cell viability at 10 uM after 48 hrs by MTT assay relative to control; assay type: functional
[22] = molecular target: Fibroblast growth factor receptor 2 (Homo sapiens) (UniProt P21802); experiment: Inhibition of N-terminal GST-tagged FGFR2 (399 to 821 residues) (unknown origin) expressed in Sf21 cells at 10 uM preincubated for 10 mins followed by peptide substrate addition relative to control
Sequence of Fibroblast growth factor receptor 2 (Homo sapiens) (P21802 22-821 limits assumed): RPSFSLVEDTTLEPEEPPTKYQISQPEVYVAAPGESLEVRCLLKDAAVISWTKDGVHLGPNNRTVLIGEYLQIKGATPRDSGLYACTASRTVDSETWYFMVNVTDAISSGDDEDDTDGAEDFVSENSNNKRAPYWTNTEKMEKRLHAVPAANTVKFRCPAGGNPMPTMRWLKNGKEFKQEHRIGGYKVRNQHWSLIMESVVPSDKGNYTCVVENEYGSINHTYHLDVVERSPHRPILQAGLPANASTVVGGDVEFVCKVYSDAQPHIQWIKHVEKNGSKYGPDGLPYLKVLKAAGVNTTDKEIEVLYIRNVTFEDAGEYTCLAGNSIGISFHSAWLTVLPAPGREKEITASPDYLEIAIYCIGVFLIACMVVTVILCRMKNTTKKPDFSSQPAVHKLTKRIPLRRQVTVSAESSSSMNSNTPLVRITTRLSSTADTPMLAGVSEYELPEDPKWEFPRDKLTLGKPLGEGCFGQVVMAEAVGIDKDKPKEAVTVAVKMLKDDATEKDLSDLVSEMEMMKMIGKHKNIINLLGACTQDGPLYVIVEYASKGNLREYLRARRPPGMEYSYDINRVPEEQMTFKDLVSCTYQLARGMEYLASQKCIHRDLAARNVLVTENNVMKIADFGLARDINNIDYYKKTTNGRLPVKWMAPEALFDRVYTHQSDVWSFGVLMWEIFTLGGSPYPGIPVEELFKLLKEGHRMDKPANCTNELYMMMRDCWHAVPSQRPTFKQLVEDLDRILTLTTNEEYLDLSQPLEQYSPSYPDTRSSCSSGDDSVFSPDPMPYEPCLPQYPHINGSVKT

MDA-MB-231 [23] = experiment: Induction of apoptosis in human MDA-MB-231 cells assessed as apoptotic cells at 2.5 uM measured after 24 hrs by annexinV-FITC/propidium iodide staining based flow cytometry analysis (reference value: 2.49%); assay type: functional
MDA-MB-231 [24] = experiment: Inhibition of human MDA-MB-231 cells migration a 1000 nM after 24 hrs by crystal violet staining based transwell migration assay; assay type: functional, cell-based
MDA-MB-231 [25] = experiment: Induction of apoptosis in human MDA-MB-231 cells assessed as increase in cleaved PARP expression at 1 to 10 uM incubated for 24 hrs by Western blot analysis; assay type: functional, cell-based; settings: dose 1-10 µM

## CC(C)(C)OC(=O)c1ccc(NC(=O)c2ccc(Cl)c(S(N)(=O)=O)c2)cc1
[1]
  inhibition: 5.19%
HCT-116 [2]
  IC50: 690 nM
[3]
  inhibition: inactive
[4]
  inhibition: 4.77%
L3.6pl
  inhibition at 10 µM: 21.9%
[5]
  inhibition: 3.33%
[6]
  inhibition: 4.33%
SW480
  inhibition at 10 µM: 80.9%
[7]
  inhibition: 1.56%
[8]
  inhibition: 2.93%
[9]
  inhibition: 0.13%
[10]
  inhibition: -2.27%
[11]
  Activity: Non-Toxic
[12]
  inhibition: 3.58%
MDA-MB-231 [13]
  Activity: Active
[14]
  inhibition: 1.42%
[15]
  inhibition: 2.87%
[16]
  inhibition: 3.48%
[17]
  inhibition: 6.45%
[18]
  inhibition: -1.53%
[19]
  inhibition: 9.32%
[20]
  inhibition: 2.52%
HCT-116 [21]
  inhibition at 10 µM: 85.3%
[22]
  inhibition: 5.28%
MDA-MB-231 [23]
  Activity: 16.01%
MDA-MB-231 [24]
  inhibition: Active
MDA-MB-231 [25]
  Activity: Active
